# Reference: US12691084B2, “Pharmaceutical composition for preventing or treating bone diseases” (INDUSTRY FOUNDATION OF CHONNAM NATIONAL UNIVERSITY, priority 2019, dated 2026)
# “Also recorded” adds a separate entry of the source.
# Key:
# mouse bone marrow cells = test: F-actin staining, actin-ring formation; assay type: cell-based; conditions: 6 uM, 4 to 5 days
# Experimental: In order to determine the activity of differentiated osteoclasts, an ability to differentiate the cells into multinuclear cells was firstly confirmed through F-actin staining. Specifically, 5×10^4 mouse hone marrow cells per well were put into a 24-well plate in which glass coated with L-Lysine was placed (Corning, 354085). Simultaneously, the cells were treated with PSTP-3,5-Me 6 uM and cultured for 4 to 5 days. The differentiated cells were fixed with 4% formaldehyde for 10 minutes and washed with PBS. For the antigen-antibody reaction, a reaction was conducted in 0.1% Triton-PBS for 20 minutes, followed by reacting the same in 1% BSA for 1 hour. Thereafter, the F-actin antibody (Thermo Fisher Scientific, A12379) was reacted for 1 hour and than washed. Cell nuclei were stained through 4′,6-diamidino-2-phenylindole (DAPI, Dilactate, Thermo Fisher Scientific, D3571) staining, and then photographed under a microscope. As a result, it was confirmed by comparing shies of F-actin that PSTP-3,5-Me inhibited differentiation into multinuclear cells.
# [1] = test system: monocytes isolated from mouse bone marrow; test: MTT assay for cytotoxicity evaluation (cell viability); assay type: cell-based; conditions: 3-10 μM; 4 days
# Experimental: 1×10^4 monocytes isolated from mouse bone marrow per well were put into a 96-well plate, and in order to assess cell viability, the cells were cultured for 4 days while being treated with PSTP-3,5-Me at different concentrations (3-10 μM). A cell viability assay reagent (DoGen, EZ-3000) was used for treatment with 1/10 of the volume of the medium, and the cells were cultured at 37° C. for 30 minutes and confirmed at […]. […] In other words, it is understood that no cytotoxicity appeared.
# ovariectomized mouse = test: Ovariectomized (OVX) mouse osteoporosis model, tibia microcomputer tomography; assay type: in vivo
# Experimental: In order to confirm in vivo efficacy of the PMSA compound, an ovariectomized animal model (OVX, ovariectomized mouse) with osteoporosis due to estrogen deficiency after ovariectomy in 8-week-old female mouse was prepared. #25 (PMSA-3-Ac, 25 mg/kg) or #25-D12 (PMSA-2-OMe-5-Cl, 20 mg/kg) were injected intraperitoneally once every two days to the ovariectomized mouse model. After 4 weeks, the tibia of the mouse was analyzed for bone density by microcomputer tomography.
# [2] = 20 mg/kg intraperitoneally once every two days, 4 weeks, tibia, compared to control (OVX)
Compound,differentiation into multinuclear cells (F-actin) (mouse bone marrow cells),actin-ring formation (mouse bone marrow cells; compared to control),cell viability [1],"bone density and bone volume (ovariectomized mouse; 20 mg/kg intraperitoneally once every two days, 4 weeks, compared to control (OVX))",bone volume (BV) increase (ovariectomized mouse; [2]) [%],cortical volume (Ct.V) increase (ovariectomized mouse; [2]) [%],total bone volume (TV) increase (ovariectomized mouse; [2]) [%],trabecular bone mineral density (Th. BMD) increase (ovariectomized mouse; [2]) [%],trabecular volume (Th.V) increase (ovariectomized mouse; [2]) [times],bone loss (ovariectomized mouse; OVX mouse model)
"Cc1cc(C)cc(N([C@@H](C)C(=O)Nc2ccccc2Sc2ccccc2)S(C)(=O)=O)c1 [#25-D5, N^2-(3,5-dimethylphenyl)-N^2-(methylsulfonyl)-N-[2-(phenylthio)phenyl]alanineamide]",inhibited,small-sized actin-ring structure,did not affect cell viability,–,–,–,–,–,–,–
"COc1ccc(Cl)cc1N(CC(=O)Nc1ccccc1Sc1ccccc1)S(C)(=O)=O [#25-D12, 2-(N-(5-chloro-2-methoxyphenyl)methylsulfonamido)-N-(2-(phenylthio)phenyl)acetamide]",–,–,–,higher,6.9,5.4,5.4,42.3,2.7,preventing bone loss in the trabecular bone portion; also recorded: effectively reduced bone loss
